In patent publication US9340535B2, “N-[5-(Aminosulfony1)-4-methyl-1,3-thiazol-2-yl]-N-methyl-2-[4-(2-pyridinyl)phenyl]acetamide mesylate monohydrate” (AiCuris GmbH & Co. KG, priority 2011, dated 2016):
≈ marks a conversion by molar mass, not a printed value. Read-outs that look alike come from different tables or passages of the source.

Legend:
[1] = Water solubility, solubility screening; conditions: for Water solubility: Solubility screening
[2] = Crystallinity by X-ray diffraction, microscopy; format: physicochemical; conditions: for Crystallinity: X-ray diffraction, microscopy
[3] = Thermal analysis and polymorphic stability (DSC, TGA); format: physicochemical; conditions: for DSC: Differential Scanning Calorimetry; for TGA: Thermogravimetric Analysis
Protocol: Polymorphism refers to the ability of a solid material to exist in more than one crystal structure or solid form.
Upon mild heating (about 50° C. to 60° C.), the water content is reduced which would make these salts and the free base form extremely difficult to handle and to process during production and formulation. In contrast the hydrate of the mono mesylate salt is thermally stable and polymorphic stable at much higher temperatures of considerably above 100° C. as judged by TGA.
Moreover, exactly one mol equivalent water is incorporated into the crystal structure wherein the hydrogen atoms of the water molecule form hydrogen bridges with oxygen atoms of two different mesylate molecules. This well-defined position in the crystal lattice (see FIG. 3) is verified by the fact that water is released from the crystal only at high temperature, starting at 160° C.

[4] = Stability to dissociation: stirring for one week at room temperature
[5] = Stability to decomposition: storage at 90° C. for one week
[6] = Exposure in repeated dose 13-week toxicity study (free base); conditions: rat, in vivo, rats; for AUC(0-t): read-out: AUC(0-24)
Protocol: The exposure of rats to N-[5-(aminosulfonyl)-4-methyl-1,3-thiazol-2-yl]-N-methyl-2-[4-(2-pyridinyl)phenyl]acetamide in a repeated dose 13-week toxicity study performed with the free base N-[5-(aminosulfonyl)-4-methyl-1,3-thiazol-2-yl]-N-methyl-2-[4-(2-pyridinyl)phenyl]acetamide (free base) was compared to the exposures observed in a 26-week repeated dose toxicity study performed with the mesylate monohydrate. In both studies, the test items were administered as 0.5% (w/v) tylose suspensions, and the concentrations were adjusted to the equivalents of free base N-[5-(aminosulfonyl)-4-methyl-1,3-thiazol-2-yl]-N-methyl-2-[4-(2-pyridinyl)phenyl]acetamide.

[7] = female, 10 mg/kg/day, F, 10 mg/kg/day, day 1, 13-week toxicity study
[8] = female, 50 mg/kg/day, F, 50 mg/kg/day, day 1, 13-week toxicity study
[9] = female, 250 mg/kg/day, F, 250 mg/kg/day, day 1, 13-week toxicity study
[10] = male, 10 mg/kg/day, M, 10 mg/kg/day, day 1, 13-week toxicity study
[11] = male, 50 mg/kg/day, M, 50 mg/kg/day, day 1, 13-week toxicity study
[12] = male, 250 mg/kg/day, M, 250 mg/kg/day, day 1, 13-week toxicity study

Which results are given for `Cc1nc(N(C)C(=O)Cc2ccc(-c3ccccn3)cc2)sc1S(N)(=O)=O.Cl` [1xHCl]?
Water solubility [1]: 39.4 mg/100 mL; Crystallinity of the hydrate during storage ([2]; during storage): decrease of crystallinity; Thermal and polymorphic stability of hydrates (in words) [3]: low thermal and low polymorphic stability; Thermal stability of hydrate [3]: labile; DSC [3]: loss of water before melting; TGA [3]: 2.1%; Stability to dissociation [4]: ++; Stability to decomposition [5]: ++

With `Cc1ccc(S(=O)(=O)O)cc1.Cc1nc(N(C)C(=O)Cc2ccc(-c3ccccn3)cc2)sc1S(N)(=O)=O` [1xTsOH] as the compound, how does the Water solubility [1] read?
The Water solubility was 50 mg/100 mL.

What about the Crystallinity [2] of the same compound?
Its Crystallinity is “+”.

What about the “Thermal stability of hydrate” value [3] of the same compound?
The value was “labile”.

What about the DSC [3] of the same compound?
Its DSC is “loss of water before melting”.

And the TGA [3]?
Its TGA is 5.9%.

What about the “Thermal and polymorphic stability of hydrates (in words)” value (“Thermal and polymorphic stability” below) ([3]; listed as monotosylate) of the same compound?
Its value is “low thermal stability”.

What about the “Thermal and polymorphic stability” value ([3]; listed as tosylate) of the same compound?
Its value is “low thermal and low polymorphic stability”.

What about the Stability to dissociation [4] of the same compound?
Its Stability to dissociation is “++”.

And the Stability to decomposition [5]?
The Stability to decomposition was “−”.

With `Cc1nc(N(C)C(=O)Cc2ccc(-c3ccccn3)cc2)sc1S(N)(=O)=O` [Free base, N-[5-(aminosulfonyl)-4-methyl-1,3-thiazol-2-yl]-N-methyl-2-[4-(2-pyridinyl)phenyl]acetamide] as the compound, how does the solubility ([1]; water) read?
The solubility was 2 µg/mL (≈ 4.97 µM).

What about the Crystallinity [2] of the same compound?
Its Crystallinity is “+”.

And the “Thermal and polymorphic stability” value [3]?
Its value is “low thermal stability”.

And the “Thermal stability of hydrate” value [3]?
The value was “labile”.

And the DSC [3]?
The DSC was “loss of water before melting”.

What about the TGA [3] of the same compound?
Its TGA is 8.8%.

And the “Thermal and polymorphic stability” value ([3]; listed as free base form)?
Its value is “low thermal and low polymorphic stability”.

And the Cmax [6, 7]?
The Cmax was 15300 ng/mL.

What about the AUC(0-t) [6, 7] of the same compound?
Its AUC(0-t) is 159 µg·h/mL.

And the AUC(0-t) ([6]; female, 10 mg/kg/day, F, 10 mg/kg/day, week 13, 13-week toxicity study)?
The AUC(0-t) was 211 µg·h/mL.

And the Cmax ([6]; female, 10 mg/kg/day, F, week 13, 13-week toxicity study)?
Its Cmax is 25800 ng/mL.

And the Cmax [6, 8]?
The Cmax was 35300 ng/mL.

And the AUC(0-t) [6, 8]?
The AUC(0-t) was 409 µg·h/mL.

What about the AUC(0-t) ([6]; female, 50 mg/kg/day, F, 50 mg/kg/day, week 13, 13-week toxicity study) of the same compound?
Its AUC(0-t) is 455 µg·h/mL.

What about the Cmax ([6]; female, 50 mg/kg/day, F, week 13, 13-week toxicity study) of the same compound?
Its Cmax is 40500 ng/mL.

And the Cmax [6, 9]?
The Cmax was 68900 ng/mL.

And the AUC(0-t) [6, 9]?
Its AUC(0-t) is 966 µg·h/mL.

And the AUC(0-t) ([6]; female, 250 mg/kg/day, F, 250 mg/kg/day, week 13, 13-week toxicity study)?
Its AUC(0-t) is 1170 µg·h/mL.

And the Cmax ([6]; female, 250 mg/kg/day, F, week 13, 13-week toxicity study)?
The Cmax was 83000 ng/mL.

What about the Cmax [6, 10] of the same compound?
Its Cmax is 13300 ng/mL.

What about the AUC(0-t) [6, 10] of the same compound?
The AUC(0-t) was 87.9 µg·h/mL.

And the AUC(0-t) ([6]; male, 10 mg/kg/day, M, 10 mg/kg/day, week 13, 13-week toxicity study)?
The AUC(0-t) was 133 µg·h/mL.

What about the Cmax ([6]; male, 10 mg/kg/day, M, week 13, 13-week toxicity study) of the same compound?
Its Cmax is 15000 ng/mL.

What about the Cmax [6, 11] of the same compound?
The Cmax was 30600 ng/mL.

What about the AUC(0-t) [6, 11] of the same compound?
Its AUC(0-t) is 248 µg·h/mL.

And the AUC(0-t) ([6]; male, 50 mg/kg/day, M, 50 mg/kg/day, week 13, 13-week toxicity study)?
The AUC(0-t) was 332 µg·h/mL.

What about the Cmax ([6]; male, 50 mg/kg/day, M, week 13, 13-week toxicity study) of the same compound?
The Cmax was 30000 ng/mL.

And the Cmax [6, 12]?
The Cmax was 53900 ng/mL.

What about the AUC(0-t) [6, 12] of the same compound?
Its AUC(0-t) is 567 µg·h/mL.

What about the AUC(0-t) ([6]; male, 250 mg/kg/day, M, 250 mg/kg/day, week 13, 13-week toxicity study) of the same compound?
Its AUC(0-t) is 661 µg·h/mL.

What about the Cmax ([6]; male, 250 mg/kg/day, M, week 13, 13-week toxicity study) of the same compound?
The Cmax was 62800 ng/mL.

What about the Stability to decomposition [5] of the same compound?
Its Stability to decomposition is “++”.
